# Results reported in ChEMBL document CHEMBL1133389, “Antihypertensive activity of substituted 2,3,8,8a-tetrahydro-7H-oxazolo[3,2-a]pyridinedicarboxylate enantiomers” (Bioorg Med Chem Lett, 2000).
# Active and inactive are the calls of the source. No cut-off for these calls is given here.
# Tests used:
# Assay type in all cases: functional, organism-based
# Design in all cases: dose 50 mg/kg
# [1] = system: Rattus norvegicus; assay: Tested for antihypertensive activity at the dose of 50 mg/kg in spontaneously hypertensive rats; active
# [2] = system: Rattus norvegicus; assay: Tested for relative acute toxicity at the dose of 50 mg/kg after intraperitoneal administration in spontaneously hypertensive rats; active
# [3] = system: Rattus norvegicus; assay: Tested for reflex tachycardia at the dose of 50 mg/kg when administered intraperitoneally in spontaneously hypertensive rats; active
# [4] = system: Rattus norvegicus; assay: Tested for antihypertensive activity at the dose of 50 mg/kg in spontaneously hypertensive rats; inactive
# [5] = system: Rattus norvegicus; assay: Tested for relative acute toxicity at the dose of 50 mg/kg after intraperitoneal administration in spontaneously hypertensive rats; inactive
compound,measurement,setting,value
CCOC(=O)[C@H]1[C@H](c2cccc([N+](=O)[O-])c2)C(C(=O)OC)=C(C)N2C[C@H](C)O[C@@]12C,Activity,[1],Active
CCOC(=O)[C@H]1[C@H](c2cccc([N+](=O)[O-])c2)C(C(=O)OC)=C(C)N2CCO[C@@]12C,Activity,[1],Active
COC(=O)C1=C(C)N2C[C@@H](C)O[C@]2(C)[C@H](C(=O)OC)[C@H]1c1cccc(Cl)c1,Activity,[2],Active
COC(=O)C1=C(C)NC(C)=C(C(=O)OC)C1c1ccccc1[N+](=O)[O-],Activity,[3],Active
CCOC(=O)[C@@H]1[C@@H](c2cccc([N+](=O)[O-])c2)C(C(=O)OC)=C(C)N2C[C@@H](C)O[C@]12C,Activity,[4],inactive
COC(=O)C1=C(C)N2C[C@H](C)O[C@@]2(C)[C@@H](C(=O)OC)[C@@H]1c1cccc(Cl)c1,Activity,[5],inactive
